# Laboratory results from US11865126B2, “Method for treating anxiety disorders, headache disorders, and eating disorders with psilocybin” (priority 2019, dated 2024).
# Columns and labels:
# [1] = tested on: subjects with chronic cluster headaches (CCH); experiment: Chronic cluster headaches study (headache logs); type: in vivo, human; settings: 0.14 mg/kg perorally x3; same subject
# Description: The study took place over a 10 week period which consisted of a baseline observation period, 3 psilocybin sessions, and a follow-up period in subjects with CCH (FIG. 27). Throughout the course of the study, subjects completed questionnaires and headache logs in order to access headache frequency, duration, and severity.
# Before the beginning of the study, subjects taking prophylactic medication underwent a 2 week wash-out period to eliminate medication. Subjects then began a baseline observation period lasting 4 weeks during which the subjects received a functional MRI (magnetic resonance imaging) scan. After the observation period, subjects were perorally administered their first dose of 0.14 mg/kg psilocybin. Blood samples were collected during the initial dosing session to establish psilocin plasma concentrations. Over the next two weeks, subjects were administered two additional doses of psilocybin with each dose administered one week apart. The last psilocybin dose was followed by 4 weeks of observation that included a functional MRI scan one week after the last psilocybin dose. Subjects were also contacted 6 and 12 months after the last psilocybin dose to gain information about the duration of potential remission periods. All regular acute treatments were permitted during the study period and recorded in the headache diary. […]
# healthy subjects = experiment: Toronto Empathy Questionnaire (TEQ); type: in vivo, human
# Description: In some embodiments, the Toronto Empathy Questionnaire (TEQ) is utilized to evaluate the safety and/or efficacy of psilocybin. The TEQ represents empathy as a primarily emotional process. […] The TEQ is a brief, reliable and valid instrument for the assessment of empathy. In some embodiments, after treating according to the methods of the disclosure, a subject's TEQ score increases by about 5%, about 10%, about 15%, about 20%, about 25%, about 30%, about 35%, about 40%, about 45%, about 50%, about 55%, about 60%, about 65%, about 70%, about 75%, about 80%, about 85%, about 90%, about 95%, or about 100%, about 110%, about 120%, about 130%, about 140%, about 150%, about 160%, about 170%, about 180%, about 190%, about 200%, about 210%, about 220%, about 230%, about 240%, about 250%, about 260%, about 270%, about 280%, about 290%, or about 300%, or more, compared to prior to treatment.
# The following list of outcome measures are non-exhaustive. • a. The short-term change from Baseline (Day −1 [Visit 2]) to Day 7 (Visit 5) in cognitive measures of attention, spatial and working memory and executive function was measured by a composite score of the CANTAB Panel (Spatial Working Memory [SWM], Rapid Visual Information Processing [RVP], Paired Associates Learning [PAL]). • b. The short-term change from Baseline (Day −1 [Visit 2]) to Day 7 (Visit 5) in Social Cognition Panel scales (Pictorial Empathy Test [PET], Reading the Mind in the Eyes Test [RMET], Toronto Empathy Questionnaire [TEQ], Social Value Orientation [SVO], Scale of Social Responsibility [SSR]). • c. The change from Baseline (Day −1 [Visit 2]) to Day 28 (Visit 6) in cognitive measures of attention, spatial and working memory and executive function as measured by a composite score of the CANTAB Panel (SWM, RVP, PAL). • d. The long-term change from Baseline (Day −1 [Visit 2]) to Day 84 (Visit 7) in Social Cognition Panel scales (PET, RMET, TEQ, SVO, SSR). • e. Dose-related differences between cognitive effects of psilocybin at Baseline (Day −1 [Visit 2]), Day 7 (Visit 5) and Day 28 (Visit 6), as measured by a composite score of the CANTAB Panel (SWM, RVP, PAL). • f. Dose-related differences between psychological effects of psilocybin at Baseline (Day −1 [Visit 2]), Day 7 (Visit 5) and Day 84 (Visit 7), as measured by Social Cognition Panel scales (PET, RMET, TEQ, SVO, SSR). • g. Differences in cognitive effects of psilocybin between psilocybin-naïve and experienced subjects at Baseline (Day −1 [Visit 2]), Day 7 (Visit 5) and Day 28 (Visit 6), as measured by a composite score of the CANTAB Panel (SWM, RVP, PAL). • h. Differences in Positive and Negative Affect Schedule (PANAS) after study drug administration on Day 0 (Visit 3). • i. Differences between psilocybin and placebo in the Emotion Recognition Test (ERT), Intra-Extra Dimensional Set Shift (IED), One Touch Stockings (OTS), Verbal Fluency and Digit Span Forward at Day 7 (Visit 5). • j. A composite score of the CANTAB Panel, including the following tests: • i. Spatial Working Memory (SWM) (performed at Visit 2, Visit 5, and Visit 6). • ii. Rapid Visual Information Processing (RVP) (performed at Visit 2, Visit 5, and Visit 6). • iii. Paired Associates Learning (PAL) (performed at Visit 2, Visit 5, and Visit 6). • k. Cognitive Flexibility Panel • i. Emotion Recognition Task (ERT) (performed at Visit 5). • ii. Intra-Extra Dimensional Set Shift (IED) (performed at Visit 5). • iii. One Touch Stockings (OTS) (performed at Visit 5). • iv. Verbal Fluency (performed at Visit 5). • v. Digit Span Forward (performed at Visit 5). • l. Five Dimension Altered States of Consciousness questionnaire (5D-ASC) (performed at Visit 3). • m. PANAS (performed at Visit 2 and Visit 3). • n. NEO-Five Factor Inventory (NEO-FFI) (performed at Visit 2, Visit 5, and Visit 7). • o. Symptom Checklist-90 item (SCL-90) (performed at Visit 2, Visit 5, and Visit 7). • p. […]
# [2] = Binge eating model: body weight; settings: 1, 3 and 10 mg/kg IP
# female Wistar rats = experiment: Binge eating model: chow, chocolate and total food intake; settings: across the whole study
structure (smiles),measurement,setting,value
CN(C)CCc1c[nH]c2cccc(OP(=O)(O)O)c12 [psilocybin],Cluster headache with pain greater than normal,[1],at least one very painful cluster headache
same,"TEQ change from baseline, LS mean difference Psilocybin 10 mg - Placebo","healthy subjects; Day 7, MMRM",0.1
same,"TEQ change from baseline, LS mean difference Psilocybin 25 mg - Placebo","healthy subjects; Day 7, MMRM",0.2
same,"TEQ change from baseline, LS mean difference Psilocybin 25 mg-10 mg","healthy subjects; Day 7, MMRM",0.1
same,"TEQ change from baseline, LS mean difference Psilocybin 10 mg - Placebo","healthy subjects; Day 84, MMRM",0.1
same,"TEQ change from baseline, LS mean difference Psilocybin 25 mg - Placebo","healthy subjects; Day 84, MMRM",0.1
same,"TEQ change from baseline, LS mean difference Psilocybin 25 mg-10 mg","healthy subjects; Day 84, MMRM",0.0
same,"TEQ change from baseline, LS mean","healthy subjects; Psilocybin 10 mg, Day 84, MMRM",−0.1
same,"TEQ change from baseline, LS mean","healthy subjects; Psilocybin 25 mg, Day 84, MMRM",−0.0
same,Overall body weight,[2],not affected
same,Food intake over the 24 hour period (normal feeding behaviour),female Wistar rats,not significantly altered
